SMILES | melting point
CCCCOc1cc(C=O)c([N+](=O)[O-])cc1OCc1ccccc1 | 94 °C
COc1ccccc1NC(=O)Nc1nc(Nc2ccccc2-c2ccccc2)nc(N(CCC(=O)O)Cc2ccc(F)c(F)c2)n1 | 115 to 120 °C
COc1cc(C(=O)CCC(=O)c2cc(OC)c(OC)c(OC)c2)cc(I)c1O | 189 to 190 °C
COc1cc2c(cc1Nc1ncc(Cl)c(N[C@@H]3CCCC[C@H]3NS(C)(=O)=O)n1)CCNC(=O)C2 | 109 to 115 °C
COC(=O)c1sc2c(c1N=CN(C)C)c1ccccc1c(=O)n2-c1ccccc1 | 225 to 227 °C
CC(C)(C)OC(=O)N[C@@H]1CN(c2ccccc2)c2ccccc2NC1=O | 160 to 165 °C
Cc1cnc2n(c1=O)CCC2 | 82 °C
Cc1cccc(NC(=O)N(C)Cc2cccc3c2CN(C2CCC(=O)NC2=O)C3=O)c1 (stereo not given) | 208 to 210 °C
O=C(SCC(=O)N1c2ccccc2CCC1C(=O)O)c1ccccc1 (stereo not given) | 164 to 168 °C
O=S(=O)(Cc1cccc2ccccc12)c1ccccc1 | 89 °C
OC1(C#Cc2ccc(-c3ccccn3)cc2)CN2CCC1CC2 (stereo not given) | 205 to 206 °C
O=C1COc2cccc3nc4c(c(c23)N1Cc1ccccc1)CCCC4 | 166 to 168 °C
NC(=O)CCCOc1cccc(CCNS(=O)(=O)c2ccc(Cl)cc2)c1 | 110 to 112 °C
O=[N+]([O-])c1ccc(NN=Cc2cnccn2)nc1 | 271 to 272 °C
Nc1ccc(NC(=O)N(C[C@H]2CC[C@H](CN(C(=O)Nc3ccc(N)cc3)C3CCCCC3)CC2)C2CCCCC2)cc1 | 185 to 188 °C
CCCC(=O)c1ccccc1NC(C)=O | 46.5 to 47 °C
O=C1N(C(c2ccccc2)c2ccccc2)c2ccc(F)cc2C12COc1cc3c(cc12)CCO3 (stereo not given) | 228 to 229 °C
CCSc1ccc(-c2cccnc2)c2c1C(=O)CC(C)C2 (stereo not given) | 140 to 142 °C
CCc1nc2c(cnn2CC)c(NC2CCOCC2)c1CNC(=O)c1cccc(C(=O)NCc2ccc(C)c(-c3cccc(CN4CCCNCC4)c3)c2)c1 | 118 to 120 °C
CC(Cn1cnnn1)n1nnc2cc3c(=O)n(C)nnc3cc2c1=O (stereo not given) | 228 to 230 °C
O=C(Cc1ccccc1)c1c(O)c2cccnc2n(-c2ccccc2)c1=O | 169 to 170 °C
COc1cc2c(cc1-c1cc(-c3ccc(C#N)cc3)on1)C(C)(C)CCC2(C)C | 202 to 203 °C
CC(C)(C)CC(C)(C)NSc1nc2ccccc2s1 | 104 °C
C=CCO[C@H]1[C@H](C)OC(=O)[C@@H](NC(=O)c2nccc(OC)c2OCc2ccccc2)COC(=O)[C@@H]1Cc1ccccc1 | 55 to 57 °C

SMILES | melting point
O=C1c2ccccc2C(=O)N1c1ccc(N2C(=O)c3ccccc3C2=O)c(O)c1 | > 300 °C
COCCOc1ccc(Nc2cc(Nc3ccc(F)c(Cl)c3)ncn2)cc1 | 208 to 210 °C
CC(C)(COCc1cccc(Oc2ccccc2)c1)c1ccc(O)cc1 | 69.2 to 70 °C
N=C1NN(c2ccccc2)CC1CN1CCOCC1 (stereo not given) | 204 to 205 °C
COC(=O)c1c(Cl)cc(Cl)cc1NC(=O)CSc1ccccc1C | 93 to 94 °C
O=C1NC(=O)c2c1c(-c1ccccc1)cc1c2c2cc(O)ccc2n1CCCBr | 280 to 282 °C
NNC(=O)C(Cc1cccs1)NC(=O)[C@H](Cc1cccc2ccccc12)NC(=O)OCc1ccccc1 (mixture of isomers) | 163 to 164 °C
O=C(O)c1cc(CBr)on1 | 143 to 148 °C
O=C(Nc1cn(C2CCCCO2)nc1C(=O)NCCCO)c1ccccn1 (stereo not given) | 139 to 140 °C
COc1ccc2c(c1)C(=O)N(C)CC(CCCl)O2 (stereo not given) | 98 to 100 °C
Cc1nc2c(O)c(C(=O)[C@@H]3OC(C)(C)O[C@H]3c3ccccc3)ccc2n1C1CC1 | 153 °C
CC(=O)N1CCC(NC(=O)NC23CC4CC(CC(C4)C2)C3)CC1 | 202 to 204 °C
Cc1ccc(OP(Oc2ccc(C)cc2C(C)(C)C)Oc2ccc(C)cc2C(C)(C)C)c(C(C)(C)C)c1 | 114 to 115 °C
CCN(CC)C(=O)Cc1ccc(C(=O)c2ccc(Cl)cc2)n1C | 82 to 85 °C
COc1ccc(C2(C)C(=O)Nc3cc(N4CCN(C)CC4)cc(Cl)c3C2=O)cc1 (stereo not given) | 201 to 202 °C
COc1ccc2sc(C(N)=O)c(SCc3ccccc3)c2c1 | 151 to 153 °C
N#Cc1cccc2c1CC(=NN)c1cccc(F)c1S2 | 203 to 206 °C
CCc1cccc(CC)c1NC(=O)c1c(-c2ccccc2)oc(C)cc1=O | 186 to 189 °C
CCOC(=O)c1c(C)nc2c(c1N)c1ccccc1n2C | 79 to 80 °C
CC(=O)OC1CSC(Oc2cncc(-c3ccc(C)cc3)c2)C(OC(C)=O)C1OC(C)=O (stereo not given) | 160 to 162 °C
O=[N+]([O-])c1ccc(O)cc1SCCO | 161 °C
O=C(Oc1ccc(Oc2ccc(C(F)(F)F)cn2)cc1)N1CCS(=O)CC1 | 156 to 157 °C
Cc1cnc2oc(-c3ccccc3)nc2c1 | 71 to 73 °C
CC(C(=O)O)c1ccc(I)cc1 (stereo not given) | 101 to 102 °C

SMILES | melting point
COc1nc(Nc2ccc(F)cc2F)c(C(=O)O)cc1F | 237 to 240 °C
CC1(C)CCC(C)(C)c2c(OCc3ccc(F)cc3)cc(C(O)C#Cc3ccc(C(=O)O)cc3)cc21 (stereo not given) | 188 °C
CCSC1=CCC2C3CCC4=CC(=O)C=CC4(C)C3C(O)CC12C (stereo not given) | 216 to 218 °C
CCCCCCCCCCCCCCCCn1c2cc(Br)ccc2c2ccc(Br)cc21 | 85 to 86 °C
Cc1oncc1C(=O)Nc1ccc(-n2nc(C(F)(F)F)cc2C(F)(F)F)cc1 | 163 to 167 °C
CC(C)(C)OC(=O)C1CCCN2C(=O)CC(=O)N12 (stereo not given) | 121 to 122 °C
Nc1nc(=O)n(C2C=CC(CO)O2)cc1F (stereo not given) | 206 °C
COc1ccc(-c2ccc([N+](=O)[O-])cc2)cc1OC1CC2CCC1C2 (stereo not given) | 134 to 135 °C
COC(=O)C(Cc1ccccc1)Oc1ccc(-c2ccc(-c3c(Cc4ccccc4)oc4ccccc34)cc2)cc1 (stereo not given) | 67 to 69 °C
CN1CCC(=C2c3ccccc3OCc3cc(Br)sc32)CC1 | 101 to 103 °C
CCCCCCCCCCCCC#CC(O)(CCCCC(=O)O)CCCCC(=O)O | 65 to 66 °C
Cc1ccc(S(=O)(=O)n2cc(C(C)O)c3ccc(C(=O)Nc4c(Cl)cncc4Cl)cc32)cc1 (stereo not given) | 206 to 211 °C
COc1ccc2c(=O)c(-c3ccc(F)cc3)c(-c3ccc(S(N)(=O)=O)cc3)oc2c1 | 245 °C
COc1cc(OC)cc(N2CCN(C(=O)N(CC(=O)O)c3cc(C)c(C)cc3OC)CC2)c1 | 188 to 189 °C
NC1CCN(c2c(F)c(F)c3c(=O)c(C(=O)O)cn(C4CC4)c3c2F)C1 (stereo not given) | 290 to 292 °C
CC(C)(NC(=O)OCc1ccccc1)C(=O)NCCCc1ccccc1 | 84 to 92 °C
CN1CCCCNC1=C[N+](=O)[O-] | 88 to 89 °C
O=C1c2cccc3c(Cl)ccc(c23)C(=O)N1CCN1CCC(c2noc3cc(F)ccc23)CC1 | 207 to 209 °C
N#Cc1nn(-c2c(Cl)cc(C(F)(F)F)cc2Cl)c(N)c1-c1ccccc1 | 198 to 199 °C
Cc1c(C)c2c(c(C)c1O)CC[C@@](C)(CCBr)O2 | 120 °C
CNc1cc(OC)c(C(=O)NCC23CCCN(CCC2)C3)cc1Cl | 188 to 190 °C
NC(=O)c1c(Cl)cc(Cl)c(O)c1Cl | 204 to 206 °C

— a melting point compilation (Tetko et al.; mined from patent text by program, amines drawn as free bases though some values may be those of a salt)
